Measurements as given in US10683282B2, “Multi-substituted pyrimidine derivatives with excellent kinase inhibitory activities” (KOREA INSTITUTE OF SCIENCE AND TECHNOLOGY, priority 2018, dated 2020).

Legend:
JAK2 = molecular target: T1, JAK2 (Homo sapiens, UniProt O60674); experiment: Kinase screening, HotSpot assay (Reaction Biology); type: biochemical
T1 construct: purchased Reaction Biology Corporation
Description: Kinase screening was performed using a “HotSpot” assay platform method by Reaction Biology Corporation. The reaction buffer used herein contained 20 mM HEPES (pH 7.5), 10 mM MgCl2, 1 mM EGTA, 0.02% Brij35, 0.02 mg/mL BSA, 0.1 mM Na3VO4, 2 mM DTT and 1% DMSO. The required cofactors were added in accordance with the kinase reaction. Freshly made buffer and cofactors were added at a concentration of 20 μM during the selected enzyme reaction. A solution of the test compound in dimethylsulfoxide (DMSO) was added at a suitable concentration to this solution. In order to initiate reaction, […] (specific activity […]) was added and incubated at room temperature for 2 hours. The test compound was screened at a starting concentration of 20 μM in a 10-dose IC50 mode. IC50 of Staurosporine used as a control drug was obtained at a starting concentration of 20 μM in a 10-dose IC50 mode.

human CYP isozymes = experiment: CYP450 assay, summary over human CYP isozymes; type: in vitro ADME; details: 10 μM
Description: Compound 5 and a positive control stock solution were diluted with water to prepare a 40 μM working solution, and a solution containing an enzyme and a substrate was prepared using water and buffer. Compound 5/control/positive control and the solution were each dispensed on a 96-well and preincubated at 37° C. for 10 minutes. The resulting substance was reacted with NADPH for 20 minutes at 37° C. and a detection reagent was added to terminate the reaction. After stabilization at room temperature for 20 minutes, a luminescence signal was measured.

FLT3 = molecular target: T2, FLT3 (Homo sapiens, UniProt P36888); experiment: Kinase screening, HotSpot assay (Reaction Biology); type: biochemical
T2 construct: purchased Reaction Biology Corporation
T2 sequence (P36888 27-993): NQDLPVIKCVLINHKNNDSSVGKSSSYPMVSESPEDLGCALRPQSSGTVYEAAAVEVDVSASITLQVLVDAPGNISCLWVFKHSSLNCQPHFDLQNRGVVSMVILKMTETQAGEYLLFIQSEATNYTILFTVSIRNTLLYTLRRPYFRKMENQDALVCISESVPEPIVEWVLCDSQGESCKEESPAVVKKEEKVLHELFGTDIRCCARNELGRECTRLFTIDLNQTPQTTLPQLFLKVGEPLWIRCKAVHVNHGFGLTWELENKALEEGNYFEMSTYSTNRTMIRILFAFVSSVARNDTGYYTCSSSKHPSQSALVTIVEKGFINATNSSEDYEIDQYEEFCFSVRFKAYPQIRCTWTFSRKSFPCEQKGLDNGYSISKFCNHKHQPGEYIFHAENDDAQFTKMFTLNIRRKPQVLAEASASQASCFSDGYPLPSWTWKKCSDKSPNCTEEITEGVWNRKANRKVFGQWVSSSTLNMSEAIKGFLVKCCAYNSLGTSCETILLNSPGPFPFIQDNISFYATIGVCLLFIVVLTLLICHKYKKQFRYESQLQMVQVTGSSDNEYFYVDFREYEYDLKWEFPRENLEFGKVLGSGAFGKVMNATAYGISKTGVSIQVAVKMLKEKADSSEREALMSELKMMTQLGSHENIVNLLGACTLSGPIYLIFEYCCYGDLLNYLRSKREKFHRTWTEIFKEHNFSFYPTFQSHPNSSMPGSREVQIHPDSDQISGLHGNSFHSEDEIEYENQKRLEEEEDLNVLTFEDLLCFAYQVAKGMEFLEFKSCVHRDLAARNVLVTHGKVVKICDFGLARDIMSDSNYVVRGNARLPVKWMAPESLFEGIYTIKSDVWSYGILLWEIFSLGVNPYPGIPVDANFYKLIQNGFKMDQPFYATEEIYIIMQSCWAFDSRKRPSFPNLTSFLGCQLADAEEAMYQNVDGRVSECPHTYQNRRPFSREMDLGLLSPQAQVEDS
Description: Kinase screening was performed using a “HotSpot” assay platform method by Reaction Biology Corporation. The reaction buffer used herein contained 20 mM HEPES (pH 7.5), 10 mM MgCl2, 1 mM EGTA, 0.02% Brij35, 0.02 mg/mL BSA, 0.1 mM Na3VO4, 2 mM DTT and 1% DMSO. The required cofactors were added in accordance with the kinase reaction. Freshly made buffer and cofactors were added at a concentration of 20 μM during the selected enzyme reaction. A solution of the test compound in dimethylsulfoxide (DMSO) was added at a suitable concentration to this solution.

hERG K+ channel = hERG K+ channel (Homo sapiens, UniProt Q12809); experiment: hERG K+ channel binding assay (fluorescence polarization)
Description: The hERG tracer and membranes were dissolved at room temperature before use, the tracer and hERG assay buffer were diluted at 1:62.5 and a test substance was diluted to 40 μM with assay buffer. 5 μL of the test substance, a positive control (astemizole or E-4031) and a negative control (DMSO) were dispensed into a 384-well plate, the membranes are dispensed at 10 μL using a multi-pipette and 5 μl of the tracer was dispensed. The light was blocked and incubated at 25° C. for 2 to 3 hours. Then, polarization was measured using a TECAN plate reader (Infinite M1000 pro).

CYP 2C19 = CYP 2C19 (Homo sapiens, UniProt P33261); experiment: CYP450 assay (luminescence); type: in vitro ADME; details: CYP 2C19 enzyme with substrate, compound at 10 μM, read-out: inhibitory activity against human CYP 2C19
Description: (§1) The resulting substance was reacted with NADPH for 20 minutes at 37° C. and a detection reagent was added to terminate the reaction. After stabilization at room temperature for 20 minutes, a luminescence signal was measured.

CYP 2D6 = CYP 2D6 (Homo sapiens, UniProt P10635); experiment: CYP450 assay (luminescence); type: in vitro ADME; details: CYP 2D6 enzyme with substrate, compound at 10 μM, read-out: inhibitory activity against human CYP 2D6
Description: as §1

CYP 2C9 = CYP 2C9 (Homo sapiens, UniProt P11712); experiment: CYP450 assay (luminescence); type: in vitro ADME; details: CYP 2C9 enzyme with substrate, compound at 10 μM, read-out: inhibitory activity against human CYP 2C9
Description: as §1

Sequence of hERG K+ channel (Q12809 whole entry): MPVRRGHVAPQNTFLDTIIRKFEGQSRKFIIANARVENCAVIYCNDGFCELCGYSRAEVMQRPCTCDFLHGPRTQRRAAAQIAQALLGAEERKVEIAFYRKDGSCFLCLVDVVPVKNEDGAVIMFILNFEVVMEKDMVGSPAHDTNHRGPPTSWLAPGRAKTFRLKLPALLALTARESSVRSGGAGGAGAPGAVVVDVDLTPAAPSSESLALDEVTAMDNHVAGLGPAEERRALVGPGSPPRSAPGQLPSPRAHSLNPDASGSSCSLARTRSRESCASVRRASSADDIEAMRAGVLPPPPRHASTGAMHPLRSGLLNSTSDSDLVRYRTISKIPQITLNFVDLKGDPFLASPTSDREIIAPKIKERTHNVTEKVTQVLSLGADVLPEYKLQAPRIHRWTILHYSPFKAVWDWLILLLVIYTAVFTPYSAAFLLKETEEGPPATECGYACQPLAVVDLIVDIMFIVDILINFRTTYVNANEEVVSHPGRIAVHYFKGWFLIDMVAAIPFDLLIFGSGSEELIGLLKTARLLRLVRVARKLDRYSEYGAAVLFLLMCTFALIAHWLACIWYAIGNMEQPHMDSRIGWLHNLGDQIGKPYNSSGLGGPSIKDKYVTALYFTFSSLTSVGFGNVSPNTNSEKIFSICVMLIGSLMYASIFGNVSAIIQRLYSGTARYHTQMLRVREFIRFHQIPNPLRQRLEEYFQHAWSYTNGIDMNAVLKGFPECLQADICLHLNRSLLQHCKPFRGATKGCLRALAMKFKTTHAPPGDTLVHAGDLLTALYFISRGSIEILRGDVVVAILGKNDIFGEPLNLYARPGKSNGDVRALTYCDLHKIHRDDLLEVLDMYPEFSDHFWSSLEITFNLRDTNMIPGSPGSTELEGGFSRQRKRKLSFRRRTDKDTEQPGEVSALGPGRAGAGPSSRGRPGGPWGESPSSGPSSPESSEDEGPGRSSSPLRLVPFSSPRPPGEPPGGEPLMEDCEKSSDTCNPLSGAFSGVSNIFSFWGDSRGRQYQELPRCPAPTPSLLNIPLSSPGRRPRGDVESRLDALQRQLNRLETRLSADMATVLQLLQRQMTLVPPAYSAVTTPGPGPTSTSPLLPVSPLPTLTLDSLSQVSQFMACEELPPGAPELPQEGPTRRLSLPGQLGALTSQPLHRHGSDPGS
T1 sequence (O60674 whole entry): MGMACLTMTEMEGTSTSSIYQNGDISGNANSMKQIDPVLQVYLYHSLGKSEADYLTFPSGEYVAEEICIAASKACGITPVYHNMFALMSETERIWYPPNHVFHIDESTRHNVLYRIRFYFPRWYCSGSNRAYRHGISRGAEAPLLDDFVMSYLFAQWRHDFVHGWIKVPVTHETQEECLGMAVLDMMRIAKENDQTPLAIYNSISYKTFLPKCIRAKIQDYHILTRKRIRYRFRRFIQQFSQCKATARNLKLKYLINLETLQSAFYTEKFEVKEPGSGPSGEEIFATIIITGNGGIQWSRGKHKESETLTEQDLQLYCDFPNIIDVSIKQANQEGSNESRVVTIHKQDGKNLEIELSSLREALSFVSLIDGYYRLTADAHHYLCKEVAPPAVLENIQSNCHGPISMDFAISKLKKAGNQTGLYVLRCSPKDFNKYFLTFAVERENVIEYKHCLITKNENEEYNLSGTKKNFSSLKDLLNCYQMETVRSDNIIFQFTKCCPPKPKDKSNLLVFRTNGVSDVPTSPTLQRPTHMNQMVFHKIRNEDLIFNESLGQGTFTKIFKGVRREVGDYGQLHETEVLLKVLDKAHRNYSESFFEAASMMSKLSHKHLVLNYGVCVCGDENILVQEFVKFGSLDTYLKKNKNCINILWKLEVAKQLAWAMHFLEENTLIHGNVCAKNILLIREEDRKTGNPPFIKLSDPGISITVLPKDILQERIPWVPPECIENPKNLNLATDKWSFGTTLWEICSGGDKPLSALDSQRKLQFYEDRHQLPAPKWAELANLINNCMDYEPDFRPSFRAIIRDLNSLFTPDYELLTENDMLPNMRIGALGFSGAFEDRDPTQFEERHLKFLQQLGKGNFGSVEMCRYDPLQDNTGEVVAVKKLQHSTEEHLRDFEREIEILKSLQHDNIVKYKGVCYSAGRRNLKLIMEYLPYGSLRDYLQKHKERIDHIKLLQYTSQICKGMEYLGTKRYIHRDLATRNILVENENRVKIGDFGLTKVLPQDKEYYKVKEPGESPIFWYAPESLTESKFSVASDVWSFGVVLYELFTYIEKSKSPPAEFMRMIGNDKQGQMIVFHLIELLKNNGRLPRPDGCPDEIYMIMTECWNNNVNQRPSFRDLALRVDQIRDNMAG
Sequence of CYP 2C9 (P11712 whole entry): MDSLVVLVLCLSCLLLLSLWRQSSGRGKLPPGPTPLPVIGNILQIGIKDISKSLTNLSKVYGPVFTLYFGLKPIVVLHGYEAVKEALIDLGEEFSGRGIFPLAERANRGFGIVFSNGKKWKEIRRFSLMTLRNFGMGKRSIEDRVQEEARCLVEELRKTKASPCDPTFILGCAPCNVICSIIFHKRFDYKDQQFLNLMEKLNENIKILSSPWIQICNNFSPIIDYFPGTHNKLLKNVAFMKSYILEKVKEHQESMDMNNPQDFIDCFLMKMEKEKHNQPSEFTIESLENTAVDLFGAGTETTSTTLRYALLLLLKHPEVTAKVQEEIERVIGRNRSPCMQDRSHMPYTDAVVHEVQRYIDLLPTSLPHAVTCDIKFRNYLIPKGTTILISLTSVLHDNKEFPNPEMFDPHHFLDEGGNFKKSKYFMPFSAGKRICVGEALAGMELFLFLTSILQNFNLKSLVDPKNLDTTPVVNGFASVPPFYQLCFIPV
Sequence of CYP 2D6 (P10635 whole entry): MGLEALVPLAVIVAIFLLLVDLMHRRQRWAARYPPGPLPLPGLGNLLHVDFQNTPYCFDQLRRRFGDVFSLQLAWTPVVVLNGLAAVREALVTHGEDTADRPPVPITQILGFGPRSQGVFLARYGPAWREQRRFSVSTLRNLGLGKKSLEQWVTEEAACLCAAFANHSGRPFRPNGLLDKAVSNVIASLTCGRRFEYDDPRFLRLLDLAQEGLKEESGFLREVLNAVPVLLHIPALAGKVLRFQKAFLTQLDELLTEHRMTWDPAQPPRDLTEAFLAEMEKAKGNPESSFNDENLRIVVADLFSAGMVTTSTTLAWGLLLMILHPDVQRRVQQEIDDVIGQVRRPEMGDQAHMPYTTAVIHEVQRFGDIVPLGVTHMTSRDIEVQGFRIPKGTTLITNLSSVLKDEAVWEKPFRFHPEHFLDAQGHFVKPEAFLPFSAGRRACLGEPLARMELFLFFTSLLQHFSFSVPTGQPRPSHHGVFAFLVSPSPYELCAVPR
Sequence of CYP 2C19 (P33261 whole entry): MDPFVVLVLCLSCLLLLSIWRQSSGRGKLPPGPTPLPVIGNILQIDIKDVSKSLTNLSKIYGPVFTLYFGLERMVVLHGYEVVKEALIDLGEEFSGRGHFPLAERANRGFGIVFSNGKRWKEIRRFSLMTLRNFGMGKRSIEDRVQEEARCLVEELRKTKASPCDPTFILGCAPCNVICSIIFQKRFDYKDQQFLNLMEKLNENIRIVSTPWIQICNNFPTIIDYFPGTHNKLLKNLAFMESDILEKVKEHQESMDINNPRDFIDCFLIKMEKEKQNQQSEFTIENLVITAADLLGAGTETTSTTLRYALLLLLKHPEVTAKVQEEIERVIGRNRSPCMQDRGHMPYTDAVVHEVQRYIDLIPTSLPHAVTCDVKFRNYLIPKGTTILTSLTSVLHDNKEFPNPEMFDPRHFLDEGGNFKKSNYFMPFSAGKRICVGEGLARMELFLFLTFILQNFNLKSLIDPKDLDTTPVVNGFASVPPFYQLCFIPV

Clc1cnc(Nc2ccc(OCCN3CCCC3)cc2)nc1NCc1ccco1 [Compound 5, 5-chloro-4-(furan-2-yl)methylamino-2-[4-{2-(pyrrolidin-1-yl)ethoxy}phenylamino]pyrimidine]
IC50 (JAK2): 8.85 nM | CYP inhibition conclusion (more than 50% inhibition needs attention) (human CYP isozymes): stable | IC50 (FLT3): 2.87 nM | hERG K+ channel binding as indicator of toxicity in the heart, conclusion (hERG K+ channel): stable in the heart | IC50 (hERG K+ channel; concentrations 0.01, 0.1, 1, 2, 5, 10, 20, 50 μM): 15.2 µM | inhibition at 20 min, 10 µM (CYP 2C19): 15.9% | inhibition at 20 min, 10 µM (CYP 2D6): 14.4% | inhibition at 20 min, 10 µM (CYP 2C9): < 1%
